Laboratory results: US20080255155A1, “KINASE INHIBITORS AND USES THEREOF” (priority 2006, published 2008)

Columns and labels:
[1] = target: T1, recombinant human c-Met/HGF receptor (Homo sapiens, UniProt P08581); assay: In vitro receptor tyrosine kinase assay, c-Met (DELFIA); assay type: biochemical; settings: ATP 10 uM, enzyme 25 nM; read-out: Potency in enzyme assays Cmet
T1 construct: His tag; made in house; host or cells: Hi-5 cells (Trichoplusia ni), recombinant baculovirus
Text: (§1) These tests measure the ability of compounds to inhibit the enzymatic activity of recombinant human c-Met/HGF receptor and VEGF receptor enzymatic activity.
A 1.3-kb cDNA corresponding to the intracellular domain of c-Met or c-Met IC (Genbank accession number NP000236-1 amino acid […]) is cloned into the BamHI/XhoI sites of the pBlueBacHis2A vector (Invitrogen) for the production of a histidine-tagged version of that enzyme. This construct is used to generate recombinant baculovirus using the Bac-N-Blue™ system according to the manufacturer's instructions (Invitrogen).
(§2) The c-Met IC protein is expressed in Hi-5 cells (Trichoplusia Ni) upon infection with recombinant baculovirus construct. Briefly, Hi-5 cells grown in suspension and maintained in serum-free medium (Sf900 II supplemented with gentamycin) at a cell density of about 2×10^6 cells/ml are infected with the above-mentioned viruses at a multiplicity of infection (MOI) of 0.2 during 72 hours at 27° C. with agitation at 120 rpm on a rotary shaker. Infected cells are harvested by centrifugation at 398 g for 15 min. Cell pellets are frozen at −80° C. until purification is performed.
All steps described in cell extraction and purification are performed at 4° C. Frozen Hi-5 cell pellets infected with the C-Met IC recombinant baculovirus are thawed and gently resuspended in Buffer A (20 mM Tris pH 8.0, 10% glycerol, 1 μg/ml pepstatin, 2 μg/ml Aprotinin and leupeptin, 50 μg/ml PMSF, 50 μg/ml TLCK and 10 μM E64, 0.5 mM DTT and 1 mM Levamisole) using 3 ml of buffer per gram of cells. The suspension is Dounce homogenized after which it is centrifuged at 22500 g, 30 min., 4° C. The supernatant (cell extract) is used as starting material for purification of c-Met IC.
The supernatant is loaded onto a QsepharoseFF column (Amersham Biosciences) equilibrated with Buffer B (20 mM Tris pH 8.0, 10% glycerol) supplemented with 0.05M NaCl. Following a ten column volume (CV) wash with equilibration buffer, bound proteins are eluted with a 5 CV salt linear gradient spanning from 0.05 to 1M NaCl in Buffer B. Typically, the conductivity of selected fractions rank between 6.5 and 37 mS/cm. This Qsepharose eluate has an estimated NaCl concentration of 0.33M and is supplemented with a 5M NaCl solution in order to increase NaCl concentration at 0.5M and also with a 5M Imidazole (pH 8.0) solution to achieve a final imidazole concentration of 15 mM. This material is loaded onto a HisTrap affinity column (GE Healthcare) equilibrated with Buffer C (50 mM NaPO4 pH 8.0, 0.5M NaCl, 10% glycerol) supplemented with 15 mM imidazole. After a 10 CV wash with equilibration buffer and an 8 CV wash with buffer C+40 mM imidazole, bound proteins are eluted with an 8 CV linear gradient (15 to 500 mM) of imidazole in buffer C. C-Met IC enriched fractions from this chromatography step are pooled based on SDS-PAGE analysis. This pool of enzyme undergoes buffer exchange using PD-10 column (GE Healthcare) against buffer D (25 mM HEPES pH 7.5, 0.1M NaCl, 10% glycerol and 2 mM β-mercaptoethanol). Final C-Met IC protein preparations concentrations are about 0.5 mg/ml with purity approximating 80%. Purified c-Met IC protein stocks are supplemented with BSA at 1 mg/ml, aliquoted and frozen at −80° C. prior to use in enzymatic assay.
Inhibition of c-Met/HGF receptor and VEGFR/KDR is measured in a DELFIA™ assay (Perkin Elmer). The substrate poly(Glu4,Tyr) is immobilized onto black high-binding polystyrene 96-well plates. The coated plates are washed and stored at 4° C. During the assay, enzymes are pre-incubated with inhibitor and Mg-ATP on ice in polypropylene 96-well plates for 4 minutes, and then transferred to the coated plates. The subsequent kinase reaction takes place at 30° C. for 10-30 minutes. ATP concentrations in the assay are 10 uM for C-Met (5× the Km) and 0.6 uM for VEGFR/KDR (2× the Km). Enzyme concentration is 25 nM (C-Met) or 5 nM (VEGFR/KDR). […]

[2] = target: T2, VEGF receptor KDR (Homo sapiens, UniProt P35968); assay: In vitro receptor tyrosine kinase assay, VEGF receptor KDR (DELFIA); assay type: biochemical; settings: ATP 0.6 uM, enzyme 5 nM; read-out: Potency in enzyme assays VEGF
T2 construct: made in house; host or cells: Sf9 cells (Spodoptera frugiperda), recombinant baculovirus
Text: as §1
In the case of VEGF receptor KDR a 1.6-kb cDNA corresponding to the catalytic domain of VEGFR2 or KDR (Genbank accession number AF035121 amino acid 806 to 1356) is cloned into the Pst I site of the pDEST20 Gateway vector (Invitrogen) for the production of a GST-tagged version of that enzyme. This construct is used to generate recombinant baculovirus using the Bac-to-Bac system according to the manufacturer's instructions (Invitrogen).
as §2, with “GST-VEGFR2806-1356” for “c-Met IC”, “Sf9” for “Hi-5”, “(Spodoptera frugiperda)” for “(Trichoplusia Ni)”, “0.1” for “0.2”
All steps described in cell extraction and purification are performed at 4° C. Frozen Sf9 cell pellets infected with the GST-VEGFR2806-1356 recombinant baculovirus re thawed and gently resuspended in Buffer A (PBS pH 7.3 supplemented with 1 μg/ml pepstatin, 2 μg/ml Aprotinin and leupeptin, 50 μg/ml PMSF, 50 μg/ml TLCK and 10 μM E64 and 0.5 mM DTT) using 3 ml of buffer per gram of cells. Suspension is Dounce homogenized and 1% Triton X-100 is added to the homogenate after which it is centrifuged at 22500 g, 30 min., 4° C. The supernatant (cell extract) is used as starting material for purification of GST-VEGFR2806-1356.
The supernatant is loaded onto a GST-agarose column (Sigma) equilibrated with PBS pH 7.3. Following a four column volume (CV) wash with PBS pH 7.3+1% Triton X-100 and 4 CV wash with buffer B (50 mM Tris pH 8.0, 20% glycerol and 100 mM NaCl), bound proteins are step eluted with 5 CV of buffer B supplemented with 5 mM DTT and 15 mM glutathion. GST-VEGFR2806-1356 enriched fractions from this chromatography step are pooled based on U.V. trace i.e. fractions with high O.D^-280- Final GST-VEGFR2806-1356 protein preparations concentrations are about 0.7 mg/ml with purity approximating 70%. Purified GST-VEGFR2806-1356 protein stocks are aliquoted and frozen at −80° C. prior to use in enzymatic assay.
Inhibition of c-Met/HGF receptor and VEGFR/KDR is measured in a DELFIA™ assay (Perkin Elmer). The substrate poly(Glu4,Tyr) is immobilized onto black high-binding polystyrene 96-well plates. The coated plates are washed and stored at 4° C. During the assay, enzymes are pre-incubated with inhibitor and Mg-ATP on ice in polypropylene 96-well plates for 4 minutes, and then transferred to the coated plates. The subsequent kinase reaction takes place at 30° C. for 10-30 minutes. ATP concentrations in the assay are 10 uM for C-Met (5× the Km) and 0.6 uM for VEGFR/KDR (2× the Km). Enzyme concentration is 25 nM (C-Met) or 5 nM (VEGFR/KDR). After incubation, the kinase reactions are quenched with EDTA and the plates are washed. Phosphorylated product is detected by incubation with Europium-labeled anti-phosphotyrosine MoAb. After washing the plates, bound MoAb is detected by time-resolved fluorescence in a Gemini SpectraMax reader (Molecular Devices). Compounds are evaluated over a range of concentrations and IC50's (concentration of compounds giving 50% inhibition of enzymatic activity) are determined.

[3] = system: A549; assay: A549 wound healing inhibition; settings: Homo sapiens; A549 cells; read-out: Potency in cell-based assays A549 wound healing inhibition
[4] = system: DU145; assay: DU145 scattering inhibition; settings: Homo sapiens, DU-145; DU145 cells; read-out: Potency in cell-based assays DU145 scattering inhibition

T1 sequence (P08581 1078-1337): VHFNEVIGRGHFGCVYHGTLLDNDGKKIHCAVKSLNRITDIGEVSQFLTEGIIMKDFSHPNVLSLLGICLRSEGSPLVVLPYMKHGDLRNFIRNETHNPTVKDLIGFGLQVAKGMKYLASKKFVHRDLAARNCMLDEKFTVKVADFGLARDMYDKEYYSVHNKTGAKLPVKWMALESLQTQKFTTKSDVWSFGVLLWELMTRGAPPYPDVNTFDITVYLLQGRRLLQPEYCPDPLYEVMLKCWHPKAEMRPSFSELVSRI
T2 sequence (P35968 806-1356): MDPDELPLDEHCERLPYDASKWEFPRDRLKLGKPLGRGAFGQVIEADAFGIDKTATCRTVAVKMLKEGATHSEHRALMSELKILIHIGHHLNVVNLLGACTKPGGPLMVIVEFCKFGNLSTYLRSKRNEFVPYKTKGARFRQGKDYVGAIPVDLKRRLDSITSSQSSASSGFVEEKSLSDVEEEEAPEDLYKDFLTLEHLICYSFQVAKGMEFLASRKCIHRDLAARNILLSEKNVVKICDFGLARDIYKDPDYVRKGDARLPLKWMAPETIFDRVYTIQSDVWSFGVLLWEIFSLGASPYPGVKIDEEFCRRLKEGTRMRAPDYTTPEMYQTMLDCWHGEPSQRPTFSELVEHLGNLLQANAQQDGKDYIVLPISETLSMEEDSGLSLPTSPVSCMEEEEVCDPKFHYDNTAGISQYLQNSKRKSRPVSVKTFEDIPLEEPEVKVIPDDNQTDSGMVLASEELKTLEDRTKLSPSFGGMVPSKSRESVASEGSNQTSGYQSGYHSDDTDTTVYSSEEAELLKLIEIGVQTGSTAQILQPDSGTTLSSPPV

Structure (SMILES)	IC50 [1] [nM]	IC50 [2] [nM]	IC50 [3] [nM]	IC50 [4] [nM]
CN(C)[C@H]1CCN(C(=O)Nc2cc(Oc3ccc(NC(=O)N4CCN(c5ccc(F)cc5)C4=O)cc3F)ccn2)C1 [Compound 18h, (S)-N-(4-(2-(3-(dimethylamino)pyrrolidine-1-carboxamido)pyridin-4-yloxy)-3-fluorophenyl)-3-(4-fluorophenyl)-2-oxoimidazolidine-1-carboxamide]	< 250	< 250	≥ 1000	≥ 1000
O=C(NCCN1CCOCC1)c1cc(Oc2ccc(NC(=O)N3CCN(c4ccccc4)C3=O)cc2F)ccn1 [Compound 87c]	≥ 1000	≥ 1000	> 10000	> 10000
CN(C)CCCOC(=O)Nc1cc(Oc2ccc(NC(=O)N3CCN(c4ccccc4)C3=O)cc2F)ccn1 [Compound 18i, 3-(dimethylamino)propyl4-(2-fluoro-4-(2-oxo-3-phenylimidazolidine-1-carboxamido)phenoxy),pyridin-2-ylcarbamate]	< 250	≥ 1000	1000 to 5000	1000 to 5000
CC(=O)Nc1ccc(Oc2cccc(NC(=O)N3CCN(c4ccccc4)C3=O)c2)cn1 [Compound 31a, N-(3-(6-acetamidopyridin-3-yloxy)phenyl)-2-oxo-3-phenylimidazolidine-1′-carboxamide]	250 to 500	≥ 1000	1000 to 5000	5000 to 10000
O=C(Nc1ccc(Oc2ccnc(Nc3ccccc3)n2)c(F)c1)N1CCN(c2ccccc2)C1=O [Compound 61a, N-(3-fluoro-4-(2-(phenylamino)pyrimidin-4-yloxy)phenyl)-2-oxo-3-phenyl-imidazolidine-1-carboxamide]	500 to 1000	≥ 1000	5000 to 10000	> 10000
CN(C)[C@@H]1CCN(C(=O)Nc2cc(Oc3ccc(NC(=O)N4CCN(c5ccccc5)C4=O)cc3F)ccn2)C1 [Compound 18e, (R)-N-(4-(2-(3-(dimethylamino)pyrrolidine-1-carboxamido)pyridin-4-yloxy)-3-fluorophenyl)-2-oxo-3-phenylimidazolidine-1-carboxamide]	< 250	250 to 500	≥ 1000	≥ 1000
CN(C)[C@H]1CCN(C(=O)Nc2cc(Oc3ccc(NC(=O)N4CCN(c5ccccc5)C4=O)cc3F)ccn2)C1 [Compound 18f, (S)-N-(4-(2-(3-(dimethylamino)pyrrolidine-1-carboxamido)pyridin-4-yloxy)-3-fluorophenyl)-2-oxo-3-phenylimidazolidine-1-carboxamide]	< 250	< 250	1000 to 5000	≥ 1000
O=C(Nc1ccc(Oc2ccncc2)c(F)c1)N1CCN(c2cccc(C(F)(F)F)c2)C1=O [Compound 21c, N-(3-fluoro-4-(pyridin-4-yloxy)phenyl)-2-oxo-3-(3-(trifluoromethyl)phenyl)imidazolidine-1-carboxamide]	≥ 1000	≥ 1000	5000 to 10000	5000 to 10000
O=C(CC(Nc1ccc(Oc2cc(NC(=O)N3CCCC3)ncn2)c(F)c1)C(F)(F)F)Nc1ccccc1 (stereo not drawn) [Compound 13, N-(6-(2-Fluoro-4-(1,1,1-trifluoro-4-oxo-4-(phenylamino)butan-2-ylamino)phenoxy)pyrimidin-4-yl)pyrrolidine-1-carboxamide]	≥ 1000	< 250	5000 to 10000	5000 to 10000
O=C(Nc1ccc(Oc2ccncc2)c(F)c1)N1CCN(c2ccc(Cl)cc2)C1=O [Compound 21f, 3-(4-chlorophenyl)-N-(3-fluoro-4-(pyridin-4-yloxy)phenyl)-2-oxoimidazolidine-1-carboxamide]	250 to 500	≥ 1000	1000 to 5000	5000 to 10000
O=C(NCCN1CCOCC1)c1cc(Oc2ccc(NC(=O)N3CCN(c4ccc(F)cc4)C3=O)cc2F)ccn1 [Compound 87d, 4-(2-fluoro-4-(3-(4-fluorophenyl)-2-oxoimidazolidine-1-carboxamido)phenoxy)-N-(2-morpholinoethyl)picolinamide]	≥ 1000	> 1000		
